US6080746A, “Methods and compositions for the prophylaxis and treatment of cytomegalovirus infections” (priority 1991, dated 2000)
Converted amounts (≈) assume the structure as drawn. Where two headings read alike, the source gives them in different places.

Key:
[1] = tested on: human CMV; experiment: Plaque reduction assay against human CMV (ED50); format: cell-based
[2] = tested on: human cytomegalovirus (strain AD 169); experiment: Inhibition of human cytomegalovirus in MRC5 cells by plaque reduction assay (reduction of CPE, MIC50; Table 1); format: cell-based; settings: for inhibition at 0.032 µg/mL: 0.032 μg/ml; for inhibition at 0.1 µg/mL: 0.1 μg/ml
Excerpt: (§1) In each case, drug treatment began 0 hr. postinfection.

[3] = tested on: HCMV; experiment: Virus yield-reduction assay, combination with DHPG on HCMV replication in MRC5 cells (Table 2); format: cell-based, human CMV; settings: DHPG 0
Excerpt: Effect of Combination Treatment^a With (±)-2'-CDG and
DHPG on HCMV Replication in MRC5 Cells
(§2) (Virus Yield-Reduction Assay)

[4] = tested on: CMV; experiment: MIC50 against CMV in MRC5 cells; format: cell-based; settings: Human betaherpesvirus 5
[5] = tested on: HCMV; experiment: Virus yield-reduction assay, combination with papaverine on HCMV replication in MRC5 cells (Table 3); format: cell-based, human CMV
Excerpt: The following results were obtained in testing mixtures of racemic 2'-CdG and papaverine under the same conditions:
Effect of Combination Treatment^a With Papaverine and
(±)-2'-CDG and on HCMV Replication in MRC5 Cells
as §2
(§3) ^a Drug treatment began immediately following the virus adsorption

[6] = tested on: MRC5 cells; experiment: Drug cytotoxicity (gross morphology) in MRC5 cell monolayer cultures (Tables 4 and 5); format: cell-based, human
Description: (§4) The effectiveness of racemic 2'-CdG and of D-2'-CdG on CMV yields in MRC5 cell monolayer cultures was determined by a plaque assay with the results set forth in Tables 4 and 5:
as §3
(§5) ^a Drug treatment began immediately following the 1 1/2 hour

[7] = tested on: CMV; experiment: CMV yields in MRC5 cell monolayer cultures by plaque assay (Tables 4 and 5); format: cell-based; settings: virus control 5.5
Description: as §4, §3, §5

[8] = tested on: human cytomegalovirus (strain AD 169); experiment: CMV yield in MRC5 cells (Table 1); format: cell-based
Excerpt: as §1

[9] = tested on: human diploid embryonic lung cells (MRC5); experiment: Drug cytotoxicity (gross morphology) in MRC5 cells (Table 1)
Excerpt: Also evaluated under the same conditions were prior art drugs Ara-A and ganciclovir (DHPG). In each case, drug treatment began 0 hr. postinfection.

[10] = tested on: CMV; experiment: Reduction of CPE in CMV-infected MRC5 cell monolayer cultures (Tables 4 and 5); format: cell-based; settings: Human betaherpesvirus 5, MRC5, read-out: Reduction (%) of CPE by CDG at Time of Harvest
Description: as §4, §3, §5

[11] = tested on: cytomegalovirus; settings: cited from earlier work; for treatment of cytomegalovirus retinitis: Rosecan et al. 1986 / reported
[12] = 0.1 μg/ml, virus control 5.5 (DHPG 5.3)
[13] = 0.32 μg/ml, virus control 5.5 (DHPG 5.3)
[14] = 1.0 μg/ml, virus control 5.5 (DHPG 5.3)
[15] = 3.2 μg/ml, virus control 5.5 (DHPG 5.3)
[16] = 10 μg/ml, virus control 5.5 (DHPG 5.3)
[17] = Human betaherpesvirus 5, MRC5, treatment 0 hr postinfection, read-out: Reduction (%) of CPE at Time of Harvest
[18] = Human betaherpesvirus 5, 0.32 μg/ml, MRC5, treatment 0 hr postinfection, read-out: Reduction (%) of CPE at Time of Harvest
[19] = Human betaherpesvirus 5, 1.0 μg/ml, MRC5, treatment 0 hr postinfection, read-out: Reduction (%) of CPE at Time of Harvest
[20] = Human betaherpesvirus 5, 3.2 μg/ml, MRC5, treatment 0 hr postinfection, read-out: Reduction (%) of CPE at Time of Harvest
[21] = Human betaherpesvirus 5, 10 μg/ml, MRC5, treatment 0 hr postinfection, read-out: Reduction (%) of CPE at Time of Harvest
[22] = Human betaherpesvirus 5, MRC5, 0 h, read-out: Reduction (%) of CPE at Time of Harvest

In the case of `CC(C)C(=O)OC[C@H]1O[C@@H](n2cnc3c(=O)[nH]c(N)nc32)C[C@@H]1OC(=O)C(C)C` (racemic) [racemic 2'-deoxyguanosine-3',5'-0-diisobutyrate, 2'-deoxyguanosine-3',5'-0-diisobutyrate], the ED50 [1] is reported as 3.9 µg/mL (≈ 9.57 µM).

In the case of `Nc1nc(N)c2ncn([C@@H]3C[C@H](CO)[C@@H](O)[C@H]3O)c2n1` (relative stereo) [DAPR], the IC50 ([2]; Human betaherpesvirus 5, MRC5, tested under the same conditions as Table 1) is reported as 8.7 µg/mL (≈ 31 µM) and the therapeutic index ([2]; tested under the same conditions as Table 1) is reported as 40.

For `Nc1nc2c(ncn2[C@@H]2C[C@H](CO)[C@@H](O)C2)c(=O)[nH]1` (relative stereo) [±2'-CdG], the “Reduction in CMV Yield” value ([3]; (±)-2'-CDG 0.1 (mM as printed)) was 0.1 Log10 PFU/ML, the “Reduction in CMV Yield” value ([3]; (±)-2'-CDG 0.32 (mM as printed)) was 0.5 Log10 PFU/ML and the “Reduction in CMV Yield” value ([3]; (±)-2'-CDG 1.0 (mM as printed)) was 0.6 Log10 PFU/ML. For the same compound, the “Reduction in CMV Yield” value ([3]; (±)-2'-CDG 3.2 (mM as printed)) was 1.0 Log10 PFU/ML, the IC50 [4] was 0.069 µg/mL (≈ 0.26 µM) and the “Reduction in CMV Yield” value ([5]; (±)-2'-CDG 0.32 (mM as printed), papaverine (DHPG) 0) was 0.7 Log10 PFU/ML. The “Reduction in CMV Yield” value ([5]; (±)-2'-CDG 1.0 (mM as printed), papaverine (DHPG) 0) was 1.0 Log10 PFU/ML, the “Reduction in CMV Yield” value ([5]; (±)-2'-CDG 3.2 (mM as printed), papaverine (DHPG) 0) was 1.7 Log10 PFU/ML and the “Reduction in CMV Yield” value ([5]; (±)-2'-CDG 10.0 (mM as printed), papaverine (DHPG) 0) was 2.7 Log10 PFU/ML. For the same compound, the “Drug Cytotoxicity (gross morphology)” value ([6]; Table 4, 0.032 μg/mL) was 0, the “Drug Cytotoxicity (gross morphology)” value ([6]; Table 4, 0.1 μg/mL) was 0 and the “Drug Cytotoxicity (gross morphology)” value ([6]; Table 4, 0.32 μg/mL) was 0. For the same compound, the “Drug Cytotoxicity (gross morphology)” value ([6]; Table 4, 1.0 μg/mL) was 0, the “Drug Cytotoxicity (gross morphology)” value ([6]; Table 4, 3.2 μg/mL) was “v. sl” and the “Drug Cytotoxicity (gross morphology)” value ([6]; Table 4, 10 μg/mL) was “sl. toxicity”. For the same compound, the “Drug Cytotoxicity (gross morphology)” value ([6]; Table 4, 32 μg/mL) was “toxic”, the “CMV Yield” value ([7]; Table 4, 0.032 μg/mL) was 5.4 log10 CCID50 /mL and the “CMV Yield” value ([7]; Table 4, 0.1 μg/mL) was 5.0 log10 CCID50 /mL. For the same compound, the “CMV Yield” value ([7]; Table 4, 0.32 μg/mL) was 4.5 log10 CCID50 /mL, the “CMV Yield” value ([7]; Table 4, 1.0 μg/mL) was 3.6 log10 CCID50 /mL and the “CMV Yield” value ([7]; Table 4, 3.2 μg/mL) was 1.0 log10 CCID50 /mL. For the same compound, the “CMV Yield” value ([7]; Table 4, 10 μg/mL) was 0 log10 CCID50 /mL, the “CMV Yield” value ([8]; 0.032 μg/ml, virus control 5.5) was 5.4 log10 CCID50 /ml and the “CMV Yield” value [8, 12] was 5.0 log10 CCID50 /ml. The “CMV Yield” value [8, 13] was 4.5 log10 CCID50 /ml, the “CMV Yield” value [8, 14] was 3.6 log10 CCID50 /ml and the “CMV Yield” value [8, 15] was 1.0 log10 CCID50 /ml. For the same compound, the “CMV Yield” value [8, 16] was 0 log10 CCID50 /ml, the “Drug Cytotoxicity (gross morphology)” value ([9]; 0.032 μg/ml) was 0 and the “Drug Cytotoxicity (gross morphology)” value ([9]; 0.1 μg/ml) was 0. For the same compound, the “Drug Cytotoxicity (gross morphology)” value ([9]; 0.32 μg/ml) was 0, the “Drug Cytotoxicity (gross morphology)” value ([9]; 1.0 μg/ml) was 0 and the “Drug Cytotoxicity (gross morphology)” value ([9]; 3.2 μg/ml) was “v. sl. toxic”. The “Drug Cytotoxicity (gross morphology)” value ([9]; 10 μg/ml) was “sl. toxic”, the “Drug Cytotoxicity (gross morphology)” value ([9]; 32 μg/ml) was “toxic” and the inhibition at 0.032 µg/mL [2, 17] was 0%. The inhibition at 0.1 µg/mL [2, 17] was 0%, the inhibition at 0.32 µg/mL [2, 18] was 20% and the inhibition at 1 µg/mL [2, 19] was 95%. The inhibition at 3.2 µg/mL [2, 20] was 100%, the inhibition at 10 µg/mL [2, 21] was 100% and the inhibition at 0.032 µg/mL ([10]; Table 4, 0.032 μg/mL) was 0%. The inhibition at 0.1 µg/mL ([10]; Table 4, 0.1 μg/mL) was 0%, the inhibition at 0.32 µg/mL ([10]; Table 4, 0.32 μg/mL) was 20% and the inhibition at 1 µg/mL ([10]; Table 4, 1.0 μg/mL) was 95%. For the same compound, the inhibition at 3.2 µg/mL ([10]; Table 4, 3.2 μg/mL) was 100% and the inhibition at 10 µg/mL ([10]; Table 4, 10 μg/mL) was 100%.

With `Nc1nc(N)c2ncn([C@@H]3C[C@H](CO)[C@@H](O)C3)c2n1` (relative stereo) [±C-2,6'-DAPdR] the “CMV Yield” value ([8]; 0.032 μg/ml, virus control 5.5) was 5.3 log10 CCID50 /ml, the “CMV Yield” value [8, 12] was 5.0 log10 CCID50 /ml and the “CMV Yield” value [8, 13] was 4.0 log10 CCID50 /ml. For the same compound, the “CMV Yield” value [8, 14] was 3.4 log10 CCID50 /ml, the “CMV Yield” value [8, 15] was 0 log10 CCID50 /ml and the “CMV Yield” value [8, 16] was 0 log10 CCID50 /ml. The “Drug Cytotoxicity (gross morphology)” value ([9]; 0.032 μg/ml) was 0, the “Drug Cytotoxicity (gross morphology)” value ([9]; 0.1 μg/ml) was 0 and the “Drug Cytotoxicity (gross morphology)” value ([9]; 0.32 μg/ml) was 0. The “Drug Cytotoxicity (gross morphology)” value ([9]; 1.0 μg/ml) was 0, the “Drug Cytotoxicity (gross morphology)” value ([9]; 3.2 μg/ml) was “v. sl. toxic” and the “Drug Cytotoxicity (gross morphology)” value ([9]; 10 μg/ml) was “sl. toxic”. For the same compound, the “Drug Cytotoxicity (gross morphology)” value ([9]; 32 μg/ml) was “toxic”, the inhibition at 0.032 µg/mL [2, 17] was 0% and the inhibition at 0.1 µg/mL [2, 17] was 0%. For the same compound, the inhibition at 0.32 µg/mL [2, 18] was 25%, the inhibition at 1 µg/mL [2, 19] was 95% and the inhibition at 3.2 µg/mL [2, 20] was 100%. For the same compound, the inhibition at 10 µg/mL [2, 21] was 100%.

For `Nc1ncnc2c1ncn2[C@@H]1O[C@H](CO)[C@@H](O)[C@@H]1O` [Ara-A, reference compound], the “CMV Yield” value [8, 13] was 5.2 log10 CCID50 /ml, the “CMV Yield” value [8, 14] was 4.9 log10 CCID50 /ml and the “CMV Yield” value [8, 15] was 4.7 log10 CCID50 /ml. For the same compound, the “CMV Yield” value [8, 16] was 3.4 log10 CCID50 /ml, the “CMV Yield” value ([8]; 32 μg/ml, virus control 5.5 (DHPG 5.3)) was 0.6 log10 CCID50 /ml and the “CMV Yield” value ([8]; 100 μg/ml, virus control 5.5 (DHPG 5.3)) was 0 log10 CCID50 /ml. The “Drug Cytotoxicity (gross morphology)” value ([9]; 0.32 μg/ml) was 0, the “Drug Cytotoxicity (gross morphology)” value ([9]; 1.0 μg/ml) was 0 and the “Drug Cytotoxicity (gross morphology)” value ([9]; 3.2 μg/ml) was 0. The “Drug Cytotoxicity (gross morphology)” value ([9]; 10 μg/ml) was 0, the inhibition at 0.32 µg/mL [2, 22] was 0% and the inhibition at 1 µg/mL [2, 22] was 0%. For the same compound, the inhibition at 3.2 µg/mL [2, 22] was 5%, the inhibition at 10 µg/mL [2, 22] was 90% and the inhibition at 32 µg/mL [2, 22] was over 95%. For the same compound, the inhibition at 100 µg/mL [2, 22] was 100% and the “treatment of cytomegalovirus retinitis” value [11] was “unsuccessful”.

Work on `CCCCC(=O)OC[C@H]1O[C@@H](n2cnc3c(=O)[nH]c(N)nc32)C[C@@H]1O` [D-2'-deoxyguanosine-5'-0-valerate] yielded an ED50 [1] of 0.09 µg/mL (≈ 0.256 µM).

In the case of `COc1ccc(Cc2nccc3cc(OC)c(OC)cc23)cc1OC` [Papaverine, reference compound], the “Reduction in CMV Yield” value ([5]; (±)-2'-CDG 0, papaverine (DHPG) 1.0 μM) is reported as 0 Log10 PFU/ML, the “Reduction in CMV Yield” value ([5]; (±)-2'-CDG 0, papaverine (DHPG) 3.2 μM) is reported as 0.2 Log10 PFU/ML and the “Reduction in CMV Yield” value ([5]; (±)-2'-CDG 0, papaverine (DHPG) 10.0 μM) is reported as 0.6 Log10 PFU/ML. For the same compound, the “Reduction in CMV Yield” value ([5]; (±)-2'-CDG 0, papaverine (DHPG) 32.0 μM) was 1.4 Log10 PFU/ML.

In the case of `Nc1nc2c(ncn2COCCO)c(=O)[nH]1` [acyclovir], the “activity against CMV retinitis” value ([11]; CMV retinitis, reported) is listed as “ineffective”, the “treatment of cytomegalovirus retinitis” value [11] is listed as “unsuccessful” and the “activity against established systemic CMV infections” value ([11]; established systemic CMV infections, reported) is listed as “ineffective”.

In the case of alpha-interferon, the “treatment of cytomegalovirus retinitis” value [11] is listed as “unsuccessful”.
